{
  "source": "ChEMBL document CHEMBL4831545",
  "about": "“Hormesis Effect of Berberine against Klebsiella pneumoniae Is Mediated by Up-Regulation of the Efflux Pump KmrA” (J Nat Prod, 2021)",
  "key": {"Enterobacter cloacae [1]": {"test_system": "Enterobacter cloacae", "experiment": "Hormesis activity against overnight compound-treated Enterobacter cloacae assessed as increase in antibiotic MIC by measuring ampicillin MIC at 3 ug/ml incubated for 12 hrs by OD600 based analysis (reference value: 25 ug/ml)", "format": "ADME, organism-based", "conditions": "in vivo, dose 3 µg/ml"}, "Klebsiella pneumoniae [2]": {"test_system": "Klebsiella pneumoniae", "experiment": "Hormesis activity against Klebsiella pneumoniae assessed as increase in antibiotic MIC by measuring tetracycline MIC at 3 ug/ml incubated for 12 hrs by OD600 based analysis (reference value: 6 ug/ml)", "format": "ADME, organism-based", "conditions": "in vivo, dose 3 µg/ml"}, "Acinetobacter baumannii [3]": {"test_system": "Acinetobacter baumannii", "experiment": "Hormesis activity against overnight-compound treated Acinetobacter baumannii assessed as increase in antibiotic MIC by measuring cefotaxime MIC at 3 ug/ml incubated for 12 hrs by OD600 based analysis (reference value: 12.5 ug/ml)", "format": "ADME, organism-based", "conditions": "in vivo, dose 3 µg/ml"}, "Klebsiella pneumoniae [4]": {"test_system": "Klebsiella pneumoniae", "experiment": "Hormesis activity against Klebsiella pneumoniae assessed as increase in antibiotic MIC by measuring ampicillin MIC at 3 ug/ml incubated for 12 hrs by OD600 based analysis (reference value: 12.5 ug/ml)", "format": "ADME, organism-based", "conditions": "in vivo, dose 3 µg/ml"}, "Klebsiella pneumoniae [5]": {"test_system": "Klebsiella pneumoniae", "experiment": "Hormesis activity against overnight compound-treated Klebsiella pneumoniae deficient in KmrA gene expression assessed as increase in antibiotic MIC by measuring atreonamMIC at 3 ug/ml incubated for 12 hrs by OD600 based analysis (reference value: 1.5625 ug/ml)", "format": "ADME, organism-based", "conditions": "in vivo, dose 3 µg/ml"}, "Acinetobacter baumannii [6]": {"test_system": "Acinetobacter baumannii", "experiment": "Hormesis activity against overnight-compound treated Acinetobacter baumannii assessed as increase in antibiotic MIC by measuring azithromycin MIC at 3 ug/ml incubated for 12 hrs by OD600 based analysis (reference value: 200 ug/ml)", "format": "ADME, organism-based", "conditions": "in vivo, dose 3 µg/ml"}, "Enterobacter cloacae [7]": {"test_system": "Enterobacter cloacae", "experiment": "Hormesis activity against overnight compound-treated Enterobacter cloacae assessed as increase in antibiotic MIC by measuring atreonamMIC at 3 ug/ml incubated for 12 hrs by OD600 based analysis (reference value: 3.125 ug/ml)", "format": "ADME, organism-based", "conditions": "in vivo, dose 3 µg/ml"}, "Klebsiella pneumoniae [8]": {"test_system": "Klebsiella pneumoniae", "experiment": "Hormesis activity against overnight compound-treated Klebsiella pneumoniae assessed as increase in antibiotic MIC by measuring tetracycline MIC at 3 ug/ml incubated for 12 hrs by OD600 based analysis (reference value: 6 ug/ml)", "format": "ADME, organism-based", "conditions": "in vivo, dose 3 µg/ml"}, "Klebsiella pneumoniae [9]": {"test_system": "Klebsiella pneumoniae", "experiment": "Hormesis activity against Klebsiella pneumoniae deficient in KmrA gene expression assessed as increase in antibiotic MIC by measuring ciprofloxacin MIC at 3 ug/ml incubated for 12 hrs by OD600 based analysis (reference value: 0.0390625 ug/ml)", "format": "ADME, organism-based", "conditions": "in vivo, dose 3 µg/ml"}, "Klebsiella pneumoniae [10]": {"test_system": "Klebsiella pneumoniae", "experiment": "Hormesis activity against Klebsiella pneumoniae assessed as increase in antibiotic MIC by measuring cefotaxime MIC at 3 ug/ml incubated for 12 hrs by OD600 based analysis (reference value: 0.39625 ug/ml)", "format": "ADME, organism-based", "conditions": "in vivo, dose 3 µg/ml"}, "Klebsiella pneumoniae [11]": {"test_system": "Klebsiella pneumoniae", "experiment": "Hormesis activity against Klebsiella pneumonia assessed as promotion of delayed bacterial growth at 25 to 50 ug/ml measured for 24 hrs in presence of 1 ug/ml tetracycline by OD600 based analysis", "format": "organism-based", "conditions": "in vivo, dose 25-50 µg/ml"}, "Acinetobacter baumannii [12]": {"test_system": "Acinetobacter baumannii", "experiment": "Hormesis activity against overnight-compound treated Acinetobacter baumannii assessed as increase in antibiotic MIC by measuring hygromycinMIC at 3 ug/ml incubated for 12 hrs by OD600 based analysis (reference value: 125 ug/ml)", "format": "ADME, organism-based", "conditions": "in vivo, dose 3 µg/ml"}, "Klebsiella pneumoniae [13]": {"test_system": "Klebsiella pneumoniae", "experiment": "Hormesis activity against overnight compound-treated Klebsiella pneumoniae assessed as increase in antibiotic MIC by measuring chloramphenicol MIC at 3 ug/ml incubated for 12 hrs by OD600 based analysis (reference value: 6.25 ug/ml)", "format": "ADME, organism-based", "conditions": "in vivo, dose 3 µg/ml"}, "Klebsiella pneumoniae [14]": {"test_system": "Klebsiella pneumoniae", "experiment": "Hormesis activity against overnight compound-treated Klebsiella pneumoniae assessed as increase in antibiotic MIC by measuring streptomycin MIC at 3 ug/ml incubated for 12 hrs by OD600 based analysis (reference value: 0.78125 ug/ml)", "format": "ADME, organism-based", "conditions": "in vivo, dose 3 µg/ml"}, "Acinetobacter baumannii [15]": {"test_system": "Acinetobacter baumannii", "experiment": "Hormesis activity against overnight-compound treated Acinetobacter baumannii assessed as increase in antibiotic MIC by measuring chloramphenicol MIC at 3 ug/ml incubated for 12 hrs by OD600 based analysis (reference value: 6.25 ug/ml)", "format": "ADME, organism-based", "conditions": "in vivo, dose 3 µg/ml"}, "Klebsiella pneumoniae [16]": {"test_system": "Klebsiella pneumoniae", "experiment": "Hormesis activity against Klebsiella pneumoniae assessed as increase in antibiotic MIC by measuring streptomycin MIC at 3 ug/ml incubated for 12 hrs by OD600 based analysis (reference value: 0.78125 ug/ml)", "format": "ADME, organism-based", "conditions": "in vivo, dose 3 µg/ml"}, "Acinetobacter baumannii [17]": {"test_system": "Acinetobacter baumannii", "experiment": "Hormesis activity against overnight-compound treated Acinetobacter baumannii assessed as increase in antibiotic MIC by measuring ampicillin MIC at 3 ug/ml incubated for 12 hrs by OD600 based analysis (reference value: 100 ug/ml)", "format": "ADME, organism-based", "conditions": "in vivo, dose 3 µg/ml"}, "Klebsiella pneumoniae [18]": {"test_system": "Klebsiella pneumoniae", "experiment": "Hormesis activity against Klebsiella pneumoniae assessed as promotion of bacterial growth at 3 to 6 ug/ml measured for 24 hrs in presence of efflux pump inhibitor, CCCP by OD600 based analysis", "format": "ADME, organism-based", "conditions": "in vivo, dose 3-6 µg/ml"}, "Acinetobacter baumannii [19]": {"test_system": "Acinetobacter baumannii", "experiment": "Hormesis activity against overnight-compound treated Acinetobacter baumannii assessed as increase in antibiotic MIC by measuring ciprofloxacin MIC at 3 ug/ml incubated for 12 hrs by OD600 based analysis (reference value: 0.3125 ug/ml)", "format": "ADME, organism-based", "conditions": "in vivo, dose 3 µg/ml"}, "Klebsiella pneumoniae [20]": {"test_system": "Klebsiella pneumoniae", "experiment": "Hormesis activity against overnight compound-treated Klebsiella pneumoniae deficient in KmrA gene expression assessed as increase in antibiotic MIC by measuring azithromycin MIC at 3 ug/ml incubated for 12 hrs by OD600 based analysis (reference value: 0.78125 ug/ml)", "format": "ADME, organism-based", "conditions": "in vivo, dose 3 µg/ml"}, "[21]": {"experiment": "Upregulation of efflux pump regulator gene expression in Klebsiella pneumoniae at 3 ug/ml incubated for 12 hrs by transcriptome analysis", "format": "ADME", "conditions": "dose 3 µg/ml"}, "Acinetobacter baumannii [22]": {"test_system": "Acinetobacter baumannii", "experiment": "Hormesis activity against overnight-compound treated Acinetobacter baumannii assessed as increase in antibiotic MIC by measuring tetracycline MIC at 3 ug/ml incubated for 12 hrs by OD600 based analysis (reference value: 240 ug/ml)", "format": "ADME, organism-based", "conditions": "in vivo, dose 3 µg/ml"}, "Klebsiella pneumoniae [23]": {"test_system": "Klebsiella pneumoniae", "experiment": "Hormesis activity against Klebsiella pneumoniae assessed as increase in antibiotic MIC by measuring hygromycinMIC at 3 ug/ml incubated for 12 hrs by OD600 based analysis (reference value: 12.5 ug/ml)", "format": "ADME, organism-based", "conditions": "in vivo, dose 3 µg/ml"}, "Klebsiella pneumoniae [24]": {"test_system": "Klebsiella pneumoniae", "experiment": "Hormesis activity against Klebsiella pneumoniae assessed as increase in antibiotic MIC by measuring azithromycin MIC at 3 ug/ml incubated for 12 hrs by OD600 based analysis (reference value: 1.5625 ug/ml)", "format": "ADME, organism-based", "conditions": "in vivo, dose 3 µg/ml"}, "Enterobacter cloacae [25]": {"test_system": "Enterobacter cloacae", "experiment": "Hormesis activity against Enterobacter cloacae assessed as increase in antibiotic MIC by measuring ciprofloxacin MIC at 3 ug/ml incubated for 12 hrs by OD600 based analysis (reference value: 0.0390625 ug/ml)", "format": "ADME, organism-based", "conditions": "in vivo, dose 3 µg/ml"}, "Enterobacter cloacae [26]": {"test_system": "Enterobacter cloacae", "experiment": "Hormesis activity against Enterobacter cloacae assessed as increase in antibiotic MIC by measuring azithromycin MIC at 3 ug/ml incubated for 12 hrs by OD600 based analysis (reference value: 6.25 ug/ml)", "format": "ADME, organism-based", "conditions": "in vivo, dose 3 µg/ml"}, "Enterobacter cloacae [27]": {"test_system": "Enterobacter cloacae", "experiment": "Hormesis activity against Enterobacter cloacae assessed as increase in antibiotic MIC by measuring cefotaxime MIC at 3 ug/ml incubated for 12 hrs by OD600 based analysis (reference value: 1.5625 ug/ml)", "format": "ADME, organism-based", "conditions": "in vivo, dose 3 µg/ml"}, "Enterobacter cloacae [28]": {"test_system": "Enterobacter cloacae", "experiment": "Hormesis activity against overnight compound-treated Enterobacter cloacae assessed as increase in antibiotic MIC by measuring rifampicin MIC at 3 ug/ml incubated for 12 hrs by OD600 based analysis (reference value: 25 ug/ml)", "format": "ADME, organism-based", "conditions": "in vivo, dose 3 µg/ml"}, "Klebsiella pneumoniae [29]": {"test_system": "Klebsiella pneumoniae", "experiment": "Hormesis activity against Klebsiella pneumoniae assessed as increase in antibiotic MIC by measuring meropenem MIC at 3 ug/ml incubated for 12 hrs by OD600 based analysis (reference value: 0.39625 ug/ml)", "format": "ADME, organism-based", "conditions": "in vivo, dose 3 µg/ml"}},
  "data": [
    {"smiles": "COc1ccc2cc3[n+](cc2c1OC)CCc1cc2c(cc1-3)OCO2", "note": "[BERBERINE]", "values": [
      {"measurement": "MIC", "setting": "Enterobacter cloacae [1]", "result": 50, "unit": "µg/mL"},
      {"measurement": "MIC", "setting": "Klebsiella pneumoniae [2]", "result": 6, "unit": "µg/mL"},
      {"measurement": "MIC", "setting": "Acinetobacter baumannii [3]", "result": 12.5, "unit": "µg/mL"},
      {"measurement": "MIC", "setting": "Klebsiella pneumoniae [4]", "result": 12.5, "unit": "µg/mL"},
      {"measurement": "MIC", "setting": "Klebsiella pneumoniae [5]", "result": 1.5625, "unit": "µg/mL"},
      {"measurement": "MIC", "setting": "Acinetobacter baumannii [6]", "result": 400, "unit": "µg/mL"},
      {"measurement": "MIC", "setting": "Enterobacter cloacae [7]", "result": 3.125, "unit": "µg/mL"},
      {"measurement": "MIC", "setting": "Klebsiella pneumoniae [8]", "result": 12, "unit": "µg/mL"},
      {"measurement": "MIC", "setting": "Klebsiella pneumoniae [9]", "result": 0.03906, "unit": "µg/mL"},
      {"measurement": "MIC", "setting": "Klebsiella pneumoniae [10]", "result": 0.3962, "unit": "µg/mL"},
      {"measurement": "Activity", "setting": "Klebsiella pneumoniae [11]", "result": "Non-Toxic"},
      {"measurement": "MIC", "setting": "Acinetobacter baumannii [12]", "result": 250, "unit": "µg/mL"},
      {"measurement": "MIC", "setting": "Klebsiella pneumoniae [13]", "result": 6.25, "unit": "µg/mL"},
      {"measurement": "MIC", "setting": "Klebsiella pneumoniae [14]", "result": 3.125, "unit": "µg/mL"},
      {"measurement": "MIC", "setting": "Acinetobacter baumannii [15]", "result": 6.25, "unit": "µg/mL"},
      {"measurement": "MIC", "setting": "Klebsiella pneumoniae [16]", "result": 1.5625, "unit": "µg/mL"},
      {"measurement": "MIC", "setting": "Acinetobacter baumannii [17]", "result": 200, "unit": "µg/mL"},
      {"measurement": "Activity", "setting": "Klebsiella pneumoniae [18]", "result": "Non-Toxic"},
      {"measurement": "MIC", "setting": "Acinetobacter baumannii [19]", "result": 0.625, "unit": "µg/mL"},
      {"measurement": "MIC", "setting": "Klebsiella pneumoniae [20]", "result": 1.5625, "unit": "µg/mL"},
      {"measurement": "Activity", "setting": "[21]", "result": "Toxic"},
      {"measurement": "MIC", "setting": "Acinetobacter baumannii [22]", "result": 360, "unit": "µg/mL"},
      {"measurement": "MIC", "setting": "Klebsiella pneumoniae [23]", "result": 12.5, "unit": "µg/mL"},
      {"measurement": "MIC", "setting": "Klebsiella pneumoniae [24]", "result": 3.125, "unit": "µg/mL"},
      {"measurement": "MIC", "setting": "Enterobacter cloacae [25]", "result": 0.07812, "unit": "µg/mL"},
      {"measurement": "MIC", "setting": "Enterobacter cloacae [26]", "result": 6.25, "unit": "µg/mL"},
      {"measurement": "MIC", "setting": "Enterobacter cloacae [27]", "result": 3.125, "unit": "µg/mL"},
      {"measurement": "MIC", "setting": "Enterobacter cloacae [28]", "result": 50, "unit": "µg/mL"},
      {"measurement": "MIC", "setting": "Klebsiella pneumoniae [29]", "result": 0.3962, "unit": "µg/mL"}
    ]}
  ]
}
